# The source made the active and inactive calls.
# What was measured:
# Cytochrome P450 3A4 = Cytochrome P450 3A4 (Homo sapiens, UniProt P08684);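 also: CYP3A4 tested as one member of a cytochrome P450 panel screen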
# Cytochrome P450 2C19 = Cytochrome P450 2C19 (Homo sapiens, UniProt P33261); assay: Cytochrome panel assay with activity outcomes. Panel member name: p450-cyp2c19 Compounds with AC50 equal or less than 10 uM are considered active; format: functional; details: read-out: AC50
# Vero [1] = assay: cells; format: functional, cell-based; details: Chlorocebus sabaeus
# Vero [2] = assay: cells; format: functional; details: Chlorocebus sabaeus
# HEK293 [3] = assay: inhibition of NOD1-driven NF-kB reporter – cell-based, luminescence, uHTS, primary screen (AID 1578); format: functional; details: Homo sapiens
# HEK293 [4] = assay: cells; format: functional, cell-based; details: Homo sapiens
# [5] = target: Nucleotide-binding oligomerization domain-containing protein 2 (Homo sapiens, UniProt Q9HC29); assay: inhibition of NOD2-driven NF-kB reporter – cell-based, luminescence, uHTS, HEK293 (AID 1566); format: functional
# Chain of Nucleotide-binding oligomerization domain-containing protein 2 (Q9HC29 whole entry, the tested form may be a part): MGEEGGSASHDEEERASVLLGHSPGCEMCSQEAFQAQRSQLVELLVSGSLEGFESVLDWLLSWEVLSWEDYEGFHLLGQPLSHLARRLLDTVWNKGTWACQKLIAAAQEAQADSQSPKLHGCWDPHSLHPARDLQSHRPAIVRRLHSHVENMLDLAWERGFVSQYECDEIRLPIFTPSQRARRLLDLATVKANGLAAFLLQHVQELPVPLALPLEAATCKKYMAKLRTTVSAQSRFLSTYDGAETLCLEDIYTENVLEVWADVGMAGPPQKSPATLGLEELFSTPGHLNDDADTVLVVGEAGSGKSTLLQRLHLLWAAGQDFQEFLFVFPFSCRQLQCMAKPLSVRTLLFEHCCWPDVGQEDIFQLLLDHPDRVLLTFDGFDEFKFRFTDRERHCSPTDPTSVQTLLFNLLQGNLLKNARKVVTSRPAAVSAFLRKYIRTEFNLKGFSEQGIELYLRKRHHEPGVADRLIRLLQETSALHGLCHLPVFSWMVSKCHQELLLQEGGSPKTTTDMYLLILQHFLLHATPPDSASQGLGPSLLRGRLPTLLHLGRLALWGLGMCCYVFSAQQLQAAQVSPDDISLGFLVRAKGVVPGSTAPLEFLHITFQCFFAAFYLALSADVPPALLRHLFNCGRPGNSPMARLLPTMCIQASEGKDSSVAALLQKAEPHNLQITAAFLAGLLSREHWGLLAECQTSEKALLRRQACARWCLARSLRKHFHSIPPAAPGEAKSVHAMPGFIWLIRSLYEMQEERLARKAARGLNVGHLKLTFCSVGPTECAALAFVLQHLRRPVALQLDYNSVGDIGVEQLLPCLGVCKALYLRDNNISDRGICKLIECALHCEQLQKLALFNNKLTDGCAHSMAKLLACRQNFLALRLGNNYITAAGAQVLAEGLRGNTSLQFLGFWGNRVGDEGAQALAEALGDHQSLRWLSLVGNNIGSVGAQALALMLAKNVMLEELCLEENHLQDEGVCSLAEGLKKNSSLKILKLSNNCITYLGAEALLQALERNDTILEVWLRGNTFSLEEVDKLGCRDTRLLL
# HEK293 [6] = assay: NOD2 signaling inhibitors in MDP-stimulated cells, cell-based, uHTS, luminescence (AID 2001); format: functional; details: Homo sapiens
# HEK293 [7] = assay: cells; format: functional, cell-based; details: Homo sapiens; remark: listed apart in the source
# [8] = target: T1, High affinity choline transporter 1 (Homo sapiens, UniProt Q9GZV3); assay: human choline transporter blockers, potency – cell-based, 10-point CRC, membrane potential dye, dose response (AID 588401); format: functional;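 also: membrane potential dye fluorescence of choline-evoked depolarization via CHT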
# T1 sequence (Q9GZV3 whole entry): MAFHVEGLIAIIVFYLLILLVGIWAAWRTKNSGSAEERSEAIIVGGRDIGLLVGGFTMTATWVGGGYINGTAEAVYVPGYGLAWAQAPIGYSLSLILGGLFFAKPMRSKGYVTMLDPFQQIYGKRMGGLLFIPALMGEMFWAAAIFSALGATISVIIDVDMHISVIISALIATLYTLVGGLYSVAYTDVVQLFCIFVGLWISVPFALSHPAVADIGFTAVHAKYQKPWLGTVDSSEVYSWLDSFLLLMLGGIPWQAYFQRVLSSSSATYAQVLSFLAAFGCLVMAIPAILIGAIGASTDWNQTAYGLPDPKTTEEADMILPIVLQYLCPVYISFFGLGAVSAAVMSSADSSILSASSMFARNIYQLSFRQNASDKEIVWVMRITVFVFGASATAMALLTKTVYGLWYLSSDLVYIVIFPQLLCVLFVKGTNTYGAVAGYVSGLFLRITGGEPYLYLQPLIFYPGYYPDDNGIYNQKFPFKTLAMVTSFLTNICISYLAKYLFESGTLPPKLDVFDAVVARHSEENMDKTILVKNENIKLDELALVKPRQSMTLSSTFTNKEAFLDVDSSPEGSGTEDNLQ
# [9] = target: T2, Ubiquitin-conjugating enzyme E2 N (Homo sapiens, UniProt P61088); format: functional;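 also: Dose-response confirmation in a TR-FRET assay detecting UBC13-driven polyubiquitin chain formation, inhibition measured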
# T2 sequence (P61088 whole entry): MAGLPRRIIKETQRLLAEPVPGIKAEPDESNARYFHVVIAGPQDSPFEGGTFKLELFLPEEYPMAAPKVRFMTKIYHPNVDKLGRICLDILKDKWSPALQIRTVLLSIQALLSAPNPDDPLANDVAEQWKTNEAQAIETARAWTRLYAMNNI
# [10] = target: T1, High affinity choline transporter 1; assay: human choline transporter blockers, potency – cell-based, 5-point CRC, membrane potential dye, dose response (AID 504840); format: functional
# CAAX prenyl protease 2 = target: T3, CAAX prenyl protease 2 (Saccharomyces cerevisiae S288c, UniProt Q03530); format: biochemical
# T3 sequence (Q03530 whole entry): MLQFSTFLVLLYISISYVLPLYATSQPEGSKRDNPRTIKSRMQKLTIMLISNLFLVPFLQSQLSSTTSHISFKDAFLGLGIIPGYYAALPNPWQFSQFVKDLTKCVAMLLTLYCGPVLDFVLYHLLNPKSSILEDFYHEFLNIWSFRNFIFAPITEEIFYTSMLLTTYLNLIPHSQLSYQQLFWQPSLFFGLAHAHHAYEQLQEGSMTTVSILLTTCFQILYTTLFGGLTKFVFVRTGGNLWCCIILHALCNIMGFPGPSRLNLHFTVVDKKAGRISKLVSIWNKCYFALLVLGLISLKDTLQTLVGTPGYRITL
# [11] = Vero E6 cell cytotoxicity, dose response, cytotoxicity control for non-replicating M. tuberculosis project, secondary assay (AID 492998); format: functional, VeroE6; details: Vero C1008
# INS1 = assay: INS-1E survival protection against cytokine death – cell-based, luminescence, retest, dose response (AID 449756); format: functional; details: Rattus norvegicus;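 also: cell death triggered by IL-1 beta plus TNF-alpha plus IFN-gamma mixture; protective hits raise ATP signal compared with cytokine alone wells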
# [12] = NIH3T3 cell viability loss – ATP luminescence, mouse fibroblasts, counter-screen, dose response (AID 2010); format: functional, cell-based;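 also: cells exposed to compound for about 90 hours before reading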
# [13] = Trypanosoma cruzi growth suppression in host cells – NIH3T3 host cells, beta-gal luminescence, confirmation (AID 2044); format: functional, cell-based;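 also: intracellular parasites grown in NIH/3T3 mouse fibroblasts as host cells; luminescent beta-galactosidase reporter signal from transgenic T. cruzi replicating inside host cells; inhibitors lower the luminescence signal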
# Large T antigen = Large T antigen (Simian virus 40, UniProt P03070); format: functional, Betapolyomavirus macacae;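 also: Confirmatory-stage PubChem screen for compounds that inhibit SV40 T antigen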
# Chain of Large T antigen (P03070 whole entry): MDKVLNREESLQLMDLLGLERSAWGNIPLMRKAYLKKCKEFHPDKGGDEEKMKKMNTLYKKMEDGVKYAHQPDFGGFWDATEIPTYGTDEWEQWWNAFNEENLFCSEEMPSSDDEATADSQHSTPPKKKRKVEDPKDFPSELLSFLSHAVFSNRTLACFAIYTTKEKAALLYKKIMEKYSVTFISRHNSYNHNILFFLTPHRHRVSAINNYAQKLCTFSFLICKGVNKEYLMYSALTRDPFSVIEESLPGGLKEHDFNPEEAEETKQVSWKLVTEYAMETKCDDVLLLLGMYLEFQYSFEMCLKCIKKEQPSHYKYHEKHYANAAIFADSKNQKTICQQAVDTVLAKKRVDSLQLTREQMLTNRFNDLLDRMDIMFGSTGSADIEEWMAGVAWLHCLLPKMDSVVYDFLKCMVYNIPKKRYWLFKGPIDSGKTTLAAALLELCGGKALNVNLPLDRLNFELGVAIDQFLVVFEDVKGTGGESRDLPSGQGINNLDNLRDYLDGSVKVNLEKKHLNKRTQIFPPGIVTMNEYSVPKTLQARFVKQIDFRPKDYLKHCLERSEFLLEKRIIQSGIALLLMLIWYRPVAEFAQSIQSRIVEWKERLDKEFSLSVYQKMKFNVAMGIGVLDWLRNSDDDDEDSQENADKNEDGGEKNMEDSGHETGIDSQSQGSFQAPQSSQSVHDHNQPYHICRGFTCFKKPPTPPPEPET
# cells = format: functional
# [14] = HepG2 cell cytotoxicity, dose response, cytotoxicity control for non-replicating M. tuberculosis project (AID 489018); format: functional; details: Mycobacterium tuberculosis
# [15] = target: FAD-linked sulfhydryl oxidase ALR (Homo sapiens, UniProt P55789); assay: ALR-catalysed DTT oxidation blockers – biochemical, H2O2 detection, luminescence, cherry-pick, dose response (AID 493248)
# Chain of FAD-linked sulfhydryl oxidase ALR (P55789 whole entry): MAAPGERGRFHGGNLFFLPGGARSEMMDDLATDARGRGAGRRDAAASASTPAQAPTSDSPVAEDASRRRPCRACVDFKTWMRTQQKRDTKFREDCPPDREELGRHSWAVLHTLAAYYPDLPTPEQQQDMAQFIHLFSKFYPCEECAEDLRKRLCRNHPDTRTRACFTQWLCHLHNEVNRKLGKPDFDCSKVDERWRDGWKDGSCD
# [16] = THP-1 cell cytotoxicity, dose response, cytotoxicity control for non-replicating M. tuberculosis project (AID 489025); format: functional
# P388 = assay: cells; format: functional; details: Mus musculus
# P388/ADR = assay: cells; format: functional; details: Mus musculus
# SN12K1 = assay: cells; format: functional; details: Homo sapiens
# Nonstructural protein 1 = Nonstructural protein 1 (Influenza A virus, UniProt Q194T2); format: functional, Influenza A virus (A/California/07/2009(H1N1))
# Chain of Nonstructural protein 1 (Q194T2 whole entry): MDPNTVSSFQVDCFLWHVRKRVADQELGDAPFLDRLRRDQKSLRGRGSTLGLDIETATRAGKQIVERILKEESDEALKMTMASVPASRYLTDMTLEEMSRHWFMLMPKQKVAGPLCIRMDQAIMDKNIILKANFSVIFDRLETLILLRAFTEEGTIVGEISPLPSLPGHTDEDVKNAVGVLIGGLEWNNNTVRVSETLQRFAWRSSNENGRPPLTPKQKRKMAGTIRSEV
# [17] = target: T4, Replicative DNA helicase DnaB (Mycobacterium tuberculosis, UniProt P9WMR3); assay: DnaB intein splicing inhibitors, dose response, biochemical, cell-free fluorescence (AID 449749); format: functional
# T4 sequence (P9WMR3 whole entry): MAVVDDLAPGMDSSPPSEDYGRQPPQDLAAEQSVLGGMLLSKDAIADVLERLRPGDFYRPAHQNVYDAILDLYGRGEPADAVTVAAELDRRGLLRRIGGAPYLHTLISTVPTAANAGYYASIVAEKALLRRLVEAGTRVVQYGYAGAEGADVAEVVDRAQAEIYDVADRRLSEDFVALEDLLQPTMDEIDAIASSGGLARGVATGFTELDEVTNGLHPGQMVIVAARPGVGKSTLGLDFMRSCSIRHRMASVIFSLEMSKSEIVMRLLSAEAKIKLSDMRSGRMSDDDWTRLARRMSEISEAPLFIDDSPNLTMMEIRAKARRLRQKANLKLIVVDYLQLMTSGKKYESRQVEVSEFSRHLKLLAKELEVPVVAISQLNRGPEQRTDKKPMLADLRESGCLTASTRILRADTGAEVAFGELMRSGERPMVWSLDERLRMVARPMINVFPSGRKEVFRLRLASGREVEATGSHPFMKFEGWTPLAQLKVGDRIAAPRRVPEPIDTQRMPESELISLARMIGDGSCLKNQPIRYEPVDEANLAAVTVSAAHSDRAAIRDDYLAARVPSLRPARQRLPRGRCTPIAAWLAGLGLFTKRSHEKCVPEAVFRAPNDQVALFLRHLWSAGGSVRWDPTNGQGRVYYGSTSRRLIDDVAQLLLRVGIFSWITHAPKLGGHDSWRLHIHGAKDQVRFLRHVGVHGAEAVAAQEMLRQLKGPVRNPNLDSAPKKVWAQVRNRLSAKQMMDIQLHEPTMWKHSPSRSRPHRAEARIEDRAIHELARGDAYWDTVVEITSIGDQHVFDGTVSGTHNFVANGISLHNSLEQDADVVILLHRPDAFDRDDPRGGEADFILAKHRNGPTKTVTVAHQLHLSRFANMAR
# Protein RecA = target: T5, Protein RecA (Mycobacterium tuberculosis, UniProt P9WHJ3); assay: Fluorescence Cell-Free Homogeneous Dose Retest to Identify Inhibitors of RecA-Intein Splicing Activity. [Related pubchem assays (depositor defined):AID2097, AID2223, AID489010, AID492950]; format: functional
# T5 sequence (P9WHJ3 whole entry): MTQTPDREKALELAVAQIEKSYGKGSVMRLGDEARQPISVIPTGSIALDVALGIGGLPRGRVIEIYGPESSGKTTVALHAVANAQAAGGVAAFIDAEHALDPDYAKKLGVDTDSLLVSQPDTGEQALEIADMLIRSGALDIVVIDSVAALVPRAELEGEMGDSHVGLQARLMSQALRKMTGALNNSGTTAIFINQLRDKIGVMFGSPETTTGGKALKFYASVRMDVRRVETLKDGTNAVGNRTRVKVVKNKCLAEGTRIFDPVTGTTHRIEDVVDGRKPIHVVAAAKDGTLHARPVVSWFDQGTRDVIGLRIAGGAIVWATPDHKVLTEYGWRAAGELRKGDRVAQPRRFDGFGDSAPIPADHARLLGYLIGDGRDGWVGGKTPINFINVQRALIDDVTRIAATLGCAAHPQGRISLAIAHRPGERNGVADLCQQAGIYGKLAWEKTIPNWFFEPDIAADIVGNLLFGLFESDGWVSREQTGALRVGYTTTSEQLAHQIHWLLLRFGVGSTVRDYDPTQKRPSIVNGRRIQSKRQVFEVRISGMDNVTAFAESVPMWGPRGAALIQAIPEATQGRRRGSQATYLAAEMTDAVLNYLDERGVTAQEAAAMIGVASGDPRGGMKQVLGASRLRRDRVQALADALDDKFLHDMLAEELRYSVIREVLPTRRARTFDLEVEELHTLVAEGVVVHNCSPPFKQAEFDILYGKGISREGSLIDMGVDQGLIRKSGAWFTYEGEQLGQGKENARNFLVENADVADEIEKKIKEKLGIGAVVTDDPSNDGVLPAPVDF
# Chain of Cytochrome P450 3A4 (P08684 whole entry): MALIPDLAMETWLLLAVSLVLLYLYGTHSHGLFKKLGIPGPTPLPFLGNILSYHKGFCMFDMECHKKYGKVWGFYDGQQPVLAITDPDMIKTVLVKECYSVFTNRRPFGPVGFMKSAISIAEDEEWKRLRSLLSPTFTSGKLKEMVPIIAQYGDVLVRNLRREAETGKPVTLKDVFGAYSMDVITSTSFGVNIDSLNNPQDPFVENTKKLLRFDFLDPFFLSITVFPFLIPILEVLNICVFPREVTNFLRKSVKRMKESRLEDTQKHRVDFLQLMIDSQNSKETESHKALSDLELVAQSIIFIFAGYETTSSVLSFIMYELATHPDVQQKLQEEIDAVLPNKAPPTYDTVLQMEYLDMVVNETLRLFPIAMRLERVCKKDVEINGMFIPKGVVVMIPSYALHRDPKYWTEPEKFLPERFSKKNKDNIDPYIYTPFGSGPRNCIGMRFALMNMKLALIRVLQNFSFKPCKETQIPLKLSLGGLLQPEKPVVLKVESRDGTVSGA
# Chain of Cytochrome P450 2C19 (P33261 whole entry): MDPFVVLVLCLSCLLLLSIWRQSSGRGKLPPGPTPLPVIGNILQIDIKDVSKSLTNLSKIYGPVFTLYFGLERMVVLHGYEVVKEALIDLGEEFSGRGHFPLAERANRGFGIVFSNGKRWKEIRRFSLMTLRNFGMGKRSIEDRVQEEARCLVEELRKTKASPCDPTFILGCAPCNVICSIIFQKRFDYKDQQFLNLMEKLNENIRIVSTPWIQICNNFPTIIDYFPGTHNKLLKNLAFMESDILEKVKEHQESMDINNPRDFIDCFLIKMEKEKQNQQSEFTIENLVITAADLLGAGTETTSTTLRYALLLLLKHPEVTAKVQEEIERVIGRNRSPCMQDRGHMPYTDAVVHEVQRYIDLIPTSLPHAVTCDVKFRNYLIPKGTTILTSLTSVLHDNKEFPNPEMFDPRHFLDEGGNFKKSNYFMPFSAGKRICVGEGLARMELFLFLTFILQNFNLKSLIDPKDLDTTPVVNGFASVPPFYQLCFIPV
structure (smiles),measurement,setting,value
CCC(C)NC(=O)c1cnn2c(C)c3c(nc12)CCCC3 (stereo not given),AC50,Cytochrome P450 3A4,inconclusive
same,AC50,Cytochrome P450 2C19,31.6 µM (inconclusive)
Cc1ccc(C(C[N+](=O)[O-])c2c(-c3ccccc3O)n[nH]c2O)cc1 (stereo not given),IC50,Vero [1],> 25 µM (active)
same,CC50,Vero [2],9.3 µM (active)
CN1CCN(c2ncc3nc(-c4ccc(Cl)cc4)c(=O)n(Cc4cccs4)c3n2)CC1,AC50,Cytochrome P450 3A4,inconclusive
CC(=O)c1ccc(-n2c(C)c(C(C)=O)c3cc(O)ccc32)cc1,EC50,HEK293 [3],> 20 µM (inactive)
same,IC50,HEK293 [4],1.94 µM (active)
same,EC50,[5],> 20 µM (inactive)
same,IC50,HEK293 [6],2.7 µM (active)
same,IC50,HEK293 [7],> 20 µM (inactive)
NC(=O)CCCn1c(C(=O)c2cc(Cl)c(N)c(Cl)c2)c2ccc(C(F)(F)F)cc2[n+]1[O-],IC50,[8],4.22 µM (active)
same,IC50,[9],> 20 µM (inactive)
same,IC50,[10],4.47 µM (active)
same,AC50,CAAX prenyl protease 2,3.5 µM (active)
Cc1ccc2nc(-c3ccccn3)c(NC3CCCC3)n2c1,CC50,[11],16.5 µM (active)
same,AC50,INS1,8.58 µM (active)
same,EC50,[12],> 60 µM (not active)
same,EC50,[13],1.74 µM (active)
same,IC50,Large T antigen,11.6 µM (active)
same,IC50,cells,4.95 µM (active)
same,CC50,[14],> 20 µM (active)
same,AC50,[15],7.26 µM (active)
same,CC50,[16],14.3 µM (active)
CCNc1cc(Cl)nc(SC)n1,IC50,[8],1.79 µM (active)
same,IC50,[10],4.88 µM (active)
Cc1ccc(OCCCCCCN2CCNCC2)c(Br)c1,IC50,Vero [1],19.7 µM (active)
same,CC50,Vero [2],21.8 µM (active)
C/C=C/C1=CC(=O)C(O)C1O (stereo not given),GI50,P388,15 µM (inactive)
same,GI50,P388/ADR,17.9 µM (inactive)
same,GI50,SN12K1,28.1 µM (inactive)
Cc1csc(/N=C(/NCCN2CCOCC2)Nc2nc(C)cs2)n1,GI50,P388,> 31.6 µM (inactive)
same,GI50,P388/ADR,> 80.4 µM (inactive)
same,GI50,SN12K1,> 100 µM (inactive)
N=C(N)NCCCCCCC(=O)NC(O)C(=O)NCCCCNCCCN (stereo not given),GI50,P388,30.1 µM (inactive)
same,GI50,P388/ADR,55.2 µM (inactive)
same,GI50,SN12K1,731 µM (inactive)
COC(=O)C(C/C=C(\C)c1ccc(Cl)cc1)C(C)=O (stereo not given),GI50,P388,20 µM (inactive)
same,GI50,P388/ADR,23.6 µM (inactive)
same,GI50,SN12K1,21.8 µM (inactive)
C/C(=N\NC(=O)c1c[nH]c2ccccc12)c1ccccn1,CC50,[11],2.01 µM (active)
same,IC50,Nonstructural protein 1,3.17 µM (active)
same,EC50,[12],3.97 µM (active)
same,EC50,[13],1.73 µM (active)
same,IC50,cells,4.29 µM (active)
same,CC50,[14],12.1 µM (active)
same,CC50,[16],6.55 µM (active)
c1ccc(CCCCN2CCC(c3ccccc3)CC2)cc1,AC50,Cytochrome P450 3A4,inconclusive
CNC(=O)[C@H]1O[C@@H](n2cnc3c(NCc4cccc(I)c4)ncnc32)[C@H](O)[C@@H]1O [IB-MECA],IC50,[8],1.83 µM (active)
same,IC50,[10],2.37 µM (active)
O=C1c2ccccc2-n2c1nc1ccccc1c2=O [TRYPTANTHRIN],CC50,[11],> 20 µM (active)
same,AC50,[17],1.08 µM (active)
same,IC50,cells,0.33 µM (active)
same,CC50,[14],> 20 µM (active)
same,EC50,Protein RecA,0.643 µM (active)
same,CC50,[16],17.5 µM (active)
